Source: the supplement of paper PMC12463676, “Small-molecule dissolution of stress granules by redox modulation benefits ALS models” (Nature Chemical Biology, 2025)

compound: O=[As]([O-])(O)O.[K+] [potassium arsenate]; assay: thermal stability z-score vs DMSO; higher = more thermally stabilized by treatment; conditions: HeLa; arsenate concentration 1 mM
Method: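 Cellular thermal proteome profiling in HeLa cells treated with 1 mM arsenate for 1 h (DMSO pretreatment), heated to ten temperatures (37-66.3 °C). Soluble protein was quantified by TMT mass spectrometry relative to DMSO controls; the thermal stability score was transformed to a z-score; mean of n = 3 experiments.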
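Also: each temperature applied for 3 min, abundance score taken as mean log2 fold change at the two lowest temperatures, z-score obtained by mean subtraction and division by SD.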

Sequence of UniProt O94811 (O94811 whole entry): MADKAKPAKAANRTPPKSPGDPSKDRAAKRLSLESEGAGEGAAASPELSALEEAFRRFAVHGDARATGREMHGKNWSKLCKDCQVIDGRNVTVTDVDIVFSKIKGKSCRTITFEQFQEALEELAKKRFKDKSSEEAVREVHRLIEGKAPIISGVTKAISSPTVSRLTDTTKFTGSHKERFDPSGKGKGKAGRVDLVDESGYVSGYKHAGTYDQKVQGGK
Sequence of UniProt O76095 (O76095 whole entry): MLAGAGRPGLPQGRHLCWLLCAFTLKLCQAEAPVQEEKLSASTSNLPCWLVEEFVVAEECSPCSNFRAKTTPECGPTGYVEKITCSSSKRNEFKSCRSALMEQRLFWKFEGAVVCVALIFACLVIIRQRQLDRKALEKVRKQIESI
Sequence of UniProt Q9NWV4 (Q9NWV4 whole entry): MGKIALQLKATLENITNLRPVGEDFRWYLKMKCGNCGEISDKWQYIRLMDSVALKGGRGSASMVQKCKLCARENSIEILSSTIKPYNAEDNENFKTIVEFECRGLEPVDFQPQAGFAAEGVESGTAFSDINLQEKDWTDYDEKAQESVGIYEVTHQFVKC
Sequence of UniProt Q9UKA4 (Q9UKA4 whole entry): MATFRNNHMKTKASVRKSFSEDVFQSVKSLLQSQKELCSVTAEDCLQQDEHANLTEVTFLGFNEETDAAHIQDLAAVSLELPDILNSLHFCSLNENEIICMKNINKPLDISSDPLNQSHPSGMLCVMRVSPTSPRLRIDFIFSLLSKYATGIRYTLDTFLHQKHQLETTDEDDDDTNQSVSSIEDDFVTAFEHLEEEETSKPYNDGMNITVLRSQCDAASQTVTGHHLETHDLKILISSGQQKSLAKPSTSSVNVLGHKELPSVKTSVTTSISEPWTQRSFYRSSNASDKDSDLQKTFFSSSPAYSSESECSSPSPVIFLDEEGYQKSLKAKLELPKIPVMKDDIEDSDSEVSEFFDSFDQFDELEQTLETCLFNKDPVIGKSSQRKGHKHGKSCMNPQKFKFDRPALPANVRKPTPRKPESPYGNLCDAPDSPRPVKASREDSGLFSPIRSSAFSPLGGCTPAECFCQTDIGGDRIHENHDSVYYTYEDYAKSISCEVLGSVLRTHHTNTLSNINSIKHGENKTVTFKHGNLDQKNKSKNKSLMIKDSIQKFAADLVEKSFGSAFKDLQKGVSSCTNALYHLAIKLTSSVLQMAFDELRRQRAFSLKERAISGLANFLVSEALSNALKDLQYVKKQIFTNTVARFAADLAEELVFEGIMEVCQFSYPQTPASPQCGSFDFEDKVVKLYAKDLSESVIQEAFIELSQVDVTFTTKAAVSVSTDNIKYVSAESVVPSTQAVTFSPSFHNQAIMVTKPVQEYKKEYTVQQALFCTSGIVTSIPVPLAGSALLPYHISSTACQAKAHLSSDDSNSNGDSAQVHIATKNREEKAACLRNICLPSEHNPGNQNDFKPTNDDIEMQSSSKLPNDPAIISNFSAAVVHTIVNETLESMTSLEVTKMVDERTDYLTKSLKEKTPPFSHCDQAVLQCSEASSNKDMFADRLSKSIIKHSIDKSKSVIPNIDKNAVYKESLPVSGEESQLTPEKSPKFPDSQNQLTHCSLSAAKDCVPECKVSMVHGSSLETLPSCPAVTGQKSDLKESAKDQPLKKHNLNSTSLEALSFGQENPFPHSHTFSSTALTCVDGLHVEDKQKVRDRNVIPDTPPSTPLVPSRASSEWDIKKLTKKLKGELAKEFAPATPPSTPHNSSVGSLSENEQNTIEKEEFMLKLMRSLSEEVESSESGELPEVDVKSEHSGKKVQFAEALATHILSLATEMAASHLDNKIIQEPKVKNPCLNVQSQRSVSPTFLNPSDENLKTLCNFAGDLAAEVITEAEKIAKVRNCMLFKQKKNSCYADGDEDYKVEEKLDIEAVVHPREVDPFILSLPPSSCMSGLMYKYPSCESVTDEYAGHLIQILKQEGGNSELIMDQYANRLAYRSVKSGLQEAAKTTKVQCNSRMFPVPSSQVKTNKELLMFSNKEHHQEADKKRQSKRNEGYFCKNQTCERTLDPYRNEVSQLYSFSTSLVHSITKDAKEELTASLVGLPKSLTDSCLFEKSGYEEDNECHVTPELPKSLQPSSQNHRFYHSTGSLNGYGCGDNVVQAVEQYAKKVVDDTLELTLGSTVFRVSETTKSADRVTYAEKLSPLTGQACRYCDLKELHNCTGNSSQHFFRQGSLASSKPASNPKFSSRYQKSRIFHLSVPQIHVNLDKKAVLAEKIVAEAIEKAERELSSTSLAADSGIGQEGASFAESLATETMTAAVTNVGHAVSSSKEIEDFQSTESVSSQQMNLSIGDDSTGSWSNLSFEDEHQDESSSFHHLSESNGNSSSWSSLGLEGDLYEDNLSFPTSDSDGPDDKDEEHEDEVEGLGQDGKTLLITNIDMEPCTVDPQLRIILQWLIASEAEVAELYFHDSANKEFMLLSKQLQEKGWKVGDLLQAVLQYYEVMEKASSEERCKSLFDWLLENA
Sequence of UniProt Q04912 (Q04912 whole entry): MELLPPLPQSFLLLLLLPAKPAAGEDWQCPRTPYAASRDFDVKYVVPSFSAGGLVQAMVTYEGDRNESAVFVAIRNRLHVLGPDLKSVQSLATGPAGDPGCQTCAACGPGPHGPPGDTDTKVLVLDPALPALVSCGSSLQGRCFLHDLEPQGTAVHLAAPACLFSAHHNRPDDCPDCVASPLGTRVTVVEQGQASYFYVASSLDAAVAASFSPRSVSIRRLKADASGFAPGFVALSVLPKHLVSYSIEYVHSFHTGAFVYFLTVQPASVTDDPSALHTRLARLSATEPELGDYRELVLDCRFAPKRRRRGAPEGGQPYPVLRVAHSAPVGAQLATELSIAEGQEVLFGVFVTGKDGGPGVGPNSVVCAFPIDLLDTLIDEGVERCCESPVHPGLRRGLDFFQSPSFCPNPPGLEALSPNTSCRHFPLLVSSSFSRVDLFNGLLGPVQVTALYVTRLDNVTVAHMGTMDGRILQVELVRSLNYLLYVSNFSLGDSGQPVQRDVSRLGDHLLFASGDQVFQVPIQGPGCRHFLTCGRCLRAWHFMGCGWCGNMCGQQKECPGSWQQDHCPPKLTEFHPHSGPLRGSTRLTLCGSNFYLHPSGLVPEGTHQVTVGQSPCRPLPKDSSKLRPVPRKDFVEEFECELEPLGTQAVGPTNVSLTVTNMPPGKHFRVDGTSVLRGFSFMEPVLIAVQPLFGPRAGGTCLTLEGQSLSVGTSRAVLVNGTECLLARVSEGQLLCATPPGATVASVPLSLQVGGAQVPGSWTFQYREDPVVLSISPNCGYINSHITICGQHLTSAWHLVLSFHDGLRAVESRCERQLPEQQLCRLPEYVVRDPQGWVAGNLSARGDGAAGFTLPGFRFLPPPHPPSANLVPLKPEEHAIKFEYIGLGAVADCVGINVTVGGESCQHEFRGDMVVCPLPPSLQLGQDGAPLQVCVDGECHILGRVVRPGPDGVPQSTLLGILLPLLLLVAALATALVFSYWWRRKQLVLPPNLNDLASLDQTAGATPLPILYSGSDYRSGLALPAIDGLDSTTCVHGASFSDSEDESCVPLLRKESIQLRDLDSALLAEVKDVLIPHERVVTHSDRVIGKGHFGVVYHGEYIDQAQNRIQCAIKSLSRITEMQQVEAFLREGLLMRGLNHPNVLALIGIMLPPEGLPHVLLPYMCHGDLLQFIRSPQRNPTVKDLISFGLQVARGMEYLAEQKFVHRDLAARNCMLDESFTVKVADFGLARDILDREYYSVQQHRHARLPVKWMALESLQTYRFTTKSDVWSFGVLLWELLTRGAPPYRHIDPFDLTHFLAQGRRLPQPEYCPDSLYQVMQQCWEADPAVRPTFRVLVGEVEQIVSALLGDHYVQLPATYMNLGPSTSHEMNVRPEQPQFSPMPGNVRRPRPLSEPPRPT
Sequence of UniProt Q8NFZ5 (Q8NFZ5 whole entry): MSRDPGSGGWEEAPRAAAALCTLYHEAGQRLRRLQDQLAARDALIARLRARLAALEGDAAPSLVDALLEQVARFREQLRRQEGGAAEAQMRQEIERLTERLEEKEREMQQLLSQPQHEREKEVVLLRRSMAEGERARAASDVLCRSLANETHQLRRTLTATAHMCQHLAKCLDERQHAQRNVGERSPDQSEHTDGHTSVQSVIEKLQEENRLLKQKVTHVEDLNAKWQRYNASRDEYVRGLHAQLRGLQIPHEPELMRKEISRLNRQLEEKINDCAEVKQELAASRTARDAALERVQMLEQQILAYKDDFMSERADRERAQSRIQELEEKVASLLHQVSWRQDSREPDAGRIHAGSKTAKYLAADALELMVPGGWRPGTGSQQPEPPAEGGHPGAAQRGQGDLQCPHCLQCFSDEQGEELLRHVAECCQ
Sequence of UniProt P78345 (P78345 whole entry): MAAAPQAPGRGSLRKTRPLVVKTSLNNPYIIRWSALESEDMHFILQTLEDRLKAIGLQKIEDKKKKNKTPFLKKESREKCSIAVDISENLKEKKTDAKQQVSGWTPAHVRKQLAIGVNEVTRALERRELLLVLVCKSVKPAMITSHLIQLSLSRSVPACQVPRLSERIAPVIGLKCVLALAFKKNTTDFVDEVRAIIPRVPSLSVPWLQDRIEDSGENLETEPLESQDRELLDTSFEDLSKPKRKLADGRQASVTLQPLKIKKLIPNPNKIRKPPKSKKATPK
Sequence of UniProt Q8N8Q9 (Q8N8Q9 whole entry): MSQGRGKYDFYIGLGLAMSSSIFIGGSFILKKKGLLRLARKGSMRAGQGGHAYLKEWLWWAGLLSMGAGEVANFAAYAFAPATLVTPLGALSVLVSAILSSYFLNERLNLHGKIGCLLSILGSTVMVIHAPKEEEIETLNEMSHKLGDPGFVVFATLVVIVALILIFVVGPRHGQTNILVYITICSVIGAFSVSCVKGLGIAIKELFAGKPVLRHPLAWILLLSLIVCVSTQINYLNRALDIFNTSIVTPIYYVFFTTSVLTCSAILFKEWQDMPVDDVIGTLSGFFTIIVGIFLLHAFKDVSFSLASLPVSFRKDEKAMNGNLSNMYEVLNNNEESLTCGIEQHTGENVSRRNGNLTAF
Sequence of UniProt P61960 (P61960 whole entry): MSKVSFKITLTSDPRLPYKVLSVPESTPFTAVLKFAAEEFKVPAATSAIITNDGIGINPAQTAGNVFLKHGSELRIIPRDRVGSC

Row | Target | thermal stability z-score
1 | C19ORF53 (UniProt Q9UNZ5) | -0.988
2 | C1S (UniProt P09871) | 0.0687
3 | JTB (UniProt O76095) | 0.688
4 | TTC21B (UniProt Q7Z4L5) | -0.277
5 | ABCD1 (UniProt P33897) | 0.118
6 | NKRF (UniProt O15226) | -0.311
7 | RPS18 (UniProt P62269) | -0.81
8 | MST1R (UniProt Q04912) | -0.0232
9 | IGF2BP1 (UniProt Q9NZI8) | -0.379
10 | TNIP2 (UniProt Q8NFZ5) | 0.126
11 | PARVB (UniProt Q9HBI1) | -0.107
12 | RPP38 (UniProt P78345) | -0.347
13 | NRAS (UniProt P01111) | -0.271
14 | DIABLO (UniProt Q9NR28) | 0.154
15 | AKAP11 (UniProt Q9UKA4) | -0.0869
16 | FAM21A (UniProt Q641Q2) | 0.352
17 | SART1 (UniProt O43290) | -2.05
18 | PIAS4 (UniProt Q8N2W9) | 0.136
19 | ATN1 (UniProt P54259) | 0.759
20 | DPM1 (UniProt O60762) | 0.383
21 | SPCS2 (UniProt Q15005) | -0.373
22 | EVPL (UniProt Q92817) | 0.499
23 | CCT8 (UniProt P50990) | -0.245
24 | JMJD1C (UniProt Q15652) | -0.398

Row | Target | thermal stability z-score
25 | ALDOC (UniProt P09972) | -0.67
26 | SCAMP4 (UniProt Q969E2) | 0.0173
27 | ULK3 (UniProt Q6PHR2) | -0.285
28 | TMEM186 (UniProt Q96B77) | -0.803
29 | NIPA2 (UniProt Q8N8Q9) | 0.36
30 | MTDH (UniProt Q86UE4) | -1.35
31 | C1ORF123 (UniProt Q9NWV4) | -0.929
32 | TPPP (UniProt O94811) | -0.479
33 | CPNE8 (UniProt Q86YQ8) | -0.648
34 | STAT5A (UniProt P42229) | 0.0163
35 | PRKCI (UniProt P41743) | -0.914
36 | NT5DC1 (UniProt Q5TFE4) | -0.749
37 | MOSPD2 (UniProt Q8NHP6) | -0.254
38 | SLC16A3 (UniProt O15427) | 0.351
39 | MED8 (UniProt Q96G25) | 0.0962
40 | SNX1 (UniProt Q13596) | 0.327
41 | MIA3 (UniProt Q5JRA6) | 1.39
42 | XRCC1 (UniProt P18887) | -0.417
43 | HNRNPL (UniProt P14866) | -2.57
44 | JAK1 (UniProt P23458) | 0.123
45 | HTATSF1 (UniProt O43719) | -0.763
46 | SNX4 (UniProt O95219) | 0.288
47 | PRKCD (UniProt Q05655) | -0.477
48 | CASKIN2 (UniProt Q8WXE0) | 0.938

Row | Target | thermal stability z-score
49 | GSTCD (UniProt Q8NEC7) | -0.0694
50 | DYM (UniProt Q7RTS9) | -0.365
51 | FAM134A (UniProt Q8NC44) | -0.162
52 | CLU (UniProt P10909) | 0.0163
53 | IL27RA (UniProt Q6UWB1) | 1.33
54 | RRP15 (UniProt Q9Y3B9) | -0.817
55 | ATG3 (UniProt Q9NT62) | -0.627
56 | ACTR10 (UniProt Q9NZ32) | -0.312
57 | EFCAB14 (UniProt O75071) | 0.262
58 | FAM8A1 (UniProt Q9UBU6) | -0.315
59 | RAP2C (UniProt Q9Y3L5) | 0.21
60 | GPATCH2 (UniProt Q9NW75) | 0.239
61 | RP2 (UniProt O75695) | -0.738
62 | VTI1B (UniProt Q9UEU0) | -0.184
63 | CPLX1 (UniProt O14810) | -0.346
64 | TSNAX (UniProt Q99598) | -0.215
65 | STAT1 (UniProt P42224) | 0.502
66 | UFM1 (UniProt P61960) | 0.181
67 | CAMSAP1 (UniProt Q5T5Y3) | -0.293
68 | RPL24 (UniProt P83731) | -0.927
69 | NT5DC2 (UniProt Q9H857) | 0.13
70 | HAUS4 (UniProt Q9H6D7) | 0.0479
71 | NBAS (UniProt A2RRP1) | -0.0529

compound: NC(=O)CCCCC1CCSS1 [lipoamide]; assay: as above; conditions: HeLa; lipoamide concentration 100 µM; arsenate co-treatment: 1 mM arsenate 1 h
Method: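 Cellular thermal proteome profiling in HeLa cells. Cells were treated with 100 µM lipoamide for 1 h, with or without 1 mM arsenate for a further 1 h, then heated to ten temperatures (37-66.3 °C), and soluble protein was quantified by TMT mass spectrometry relative to 0.1% DMSO controls. The thermal stability score (sum of log2 fold changes minus the abundance score) was transformed to a z-score; mean of n = 3 experiments.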

Row | Target | thermal stability z-score
72 | C19ORF53 (UniProt Q9UNZ5) | 0.3
73 | C1S (UniProt P09871) | 0.0855
74 | JTB (UniProt O76095) | 0.634
75 | TTC21B (UniProt Q7Z4L5) | -0.223
76 | ABCD1 (UniProt P33897) | -0.752
77 | NKRF (UniProt O15226) | -0.0267
78 | RPS18 (UniProt P62269) | 0.389
79 | MST1R (UniProt Q04912) | -0.0878
80 | IGF2BP1 (UniProt Q9NZI8) | -0.0135
81 | TNIP2 (UniProt Q8NFZ5) | 0.0235
82 | PARVB (UniProt Q9HBI1) | -0.459
83 | RPP38 (UniProt P78345) | -0.128
84 | NRAS (UniProt P01111) | 0.00516
85 | DIABLO (UniProt Q9NR28) | 0.979
86 | AKAP11 (UniProt Q9UKA4) | 0.0955
87 | FAM21A (UniProt Q641Q2) | 0.0165
88 | SART1 (UniProt O43290) | 0.898
89 | PIAS4 (UniProt Q8N2W9) | 0.144

Row | Target | thermal stability z-score
90 | ATN1 (UniProt P54259) | 0.566
91 | DPM1 (UniProt O60762) | 0.673
92 | SPCS2 (UniProt Q15005) | -0.33
93 | EVPL (UniProt Q92817) | 0.263
94 | CCT8 (UniProt P50990) | -0.0223
95 | JMJD1C (UniProt Q15652) | 0.559
96 | ALDOC (UniProt P09972) | -0.284
97 | SCAMP4 (UniProt Q969E2) | 0.196
98 | ULK3 (UniProt Q6PHR2) | -0.27
99 | TMEM186 (UniProt Q96B77) | -1.59
100 | NIPA2 (UniProt Q8N8Q9) | 0.499
101 | MTDH (UniProt Q86UE4) | -0.531
102 | C1ORF123 (UniProt Q9NWV4) | -0.384
103 | TPPP (UniProt O94811) | -0.836
104 | CPNE8 (UniProt Q86YQ8) | 0.773
105 | STAT5A (UniProt P42229) | -0.0259
106 | PRKCI (UniProt P41743) | -0.507
